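Protocol summary: plate cells (96-well), add compound at 5 concentrations, incubate 48 h, interpolate endpoints linearly. At the GI50, growth is halved.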 Calls of active or inactive are those of the source. No stated cut-off is given here; in the data, active = GI50 up to about 1.1 µM and inactive = higher. Numbered stars: 1 amine (or outer) side, 2 acyl side, 3 side chain; on linkers, the order of the positions; unused ones are H or OH. Bridge positions count the residues as written; N and C are the ends. Square brackets hold non-standard residues; d marks the D form. Peptide text beside a SMILES is read from it. I, II: the chains in the order shown. Actinocin(9to1) = Cc1c2oc3c(C)ccc(C(=O)[*:1])c3nc-2c(C(=O)[*:2])c(N)c1=O; X48 = O=C1CC(C(=O)[*:2])N([*:1])C1; NMeV = CN[CH](C(=O)O)C(C)C; Sar = CNCC(=O)O
What was measured:
Experiment in all cases: NCI tumour cell line growth inhibition, 48 h
HCT-15 = tested on: HCT-15
SN12C = tested on: SN12C
SK-OV-3 = tested on: SK-OV-3
ACHN = tested on: ACHN
EKVX = tested on: EKVX
OVCAR-5 = tested on: OVCAR-5
NCI-H460 = tested on: NCI-H460
PC-3 = tested on: PC-3
T47D = tested on: T47D
IGROV-1 = tested on: IGROV-1
SNB-75 = tested on: SNB-75
SK-MEL-5 = tested on: SK-MEL-5
HCC 2998 = tested on: HCC 2998
COLO 205 = tested on: COLO 205
SNB-19 = tested on: SNB-19
CCRF-CEM = tested on: CCRF-CEM
SK-MEL-28 = tested on: SK-MEL-28
NCI-H522 = tested on: NCI-H522
MDA-MB-231 = tested on: MDA-MB-231
M14 = tested on: M14
SF-539 = tested on: SF-539
SW-620 = tested on: SW-620
UO-31 = tested on: UO-31
MOLT-4 = tested on: MOLT-4
TK-10 = tested on: TK-10
HCT-116 = tested on: HCT-116
HOP-62 = tested on: HOP-62
OVCAR-4 = tested on: OVCAR-4
NCI/ADR-RES = tested on: NCI/ADR-RES
K562 = tested on: K562
OVCAR-8 = tested on: OVCAR-8
RPMI-8226 = tested on: RPMI-8226
MCF7 = tested on: MCF7
Hs-578T = tested on: Hs-578T
MDA-MB-435 = tested on: MDA-MB-435
MDA-N = tested on: MDA-N
SF-295 = tested on: SF-295
A549 = tested on: A549
UACC-257 = tested on: UACC-257
KM12 = tested on: KM12
U-251 = tested on: U-251
786-0 = tested on: 786-0
SF-268 = tested on: SF-268
HL-60 = tested on: HL-60
HT-29 = tested on: HT-29
Malme-3M = tested on: Malme-3M
HOP-92 = tested on: HOP-92
RXF 393 = tested on: RXF 393
NCI-H226 = tested on: NCI-H226
CAKI-1 = tested on: CAKI-1
OVCAR-3 = tested on: OVCAR-3
DU-145 = tested on: DU-145
SR = tested on: SR
A498 = tested on: A498
SK-MEL-2 = tested on: SK-MEL-2
NCI-H23 = tested on: NCI-H23
LOX IMVI = tested on: LOX IMVI

With COc1cc(C2c3cc4c(cc3[C@@H](Nc3ccc(F)cc3)C3CO[C@@H](O)[C@H]23)OCO4)cc(OC)c1O (stereo partly specified) the GI50 (HCT-15) was 3.89 µM, the GI50 (SN12C) was 5.12 µM (inactive) and the GI50 (SK-OV-3) was 8.65 µM (inactive). The GI50 (ACHN) was 1.05 µM (active), the GI50 (EKVX) was 14.4 µM (inactive) and the GI50 (OVCAR-5) was 1.46 µM (inactive). For the same molecule, the GI50 (NCI-H460) was 169 nM (active), the GI50 (PC-3) was 3.61 µM (inactive) and the GI50 (T47D) was 3.72 µM (inactive). The GI50 (IGROV-1) was 7.62 µM (inactive), the GI50 (SNB-75) was 4.83 µM (inactive) and the GI50 (SK-MEL-5) was 6.18 µM (inactive). The GI50 (HCC 2998) was 11 µM (inactive), the GI50 (COLO 205) was 5.78 µM (inactive) and the GI50 (SNB-19) was 3.64 µM (inactive). The GI50 (CCRF-CEM) was 925 nM (active), the GI50 (SK-MEL-28) was 7.85 µM (inactive) and the GI50 (NCI-H522) was 3.16 µM (inactive). The GI50 (MDA-MB-231) was 3.48 µM (inactive), the GI50 (M14) was 5.26 µM (inactive) and the GI50 (SF-539) was 1.03 µM (active). The GI50 (SW-620) was 8.38 µM (inactive), the GI50 (UO-31) was 1.24 µM (inactive) and the GI50 (MOLT-4) was 236 nM (active). The GI50 (TK-10) was 12.3 µM (inactive), the GI50 (HCT-116) was 3.72 µM (inactive) and the GI50 (HOP-62) was 5.07 µM (inactive). The GI50 (OVCAR-4) was 12.2 µM (inactive), the GI50 (NCI/ADR-RES) was 7.36 µM (inactive) and the GI50 (K562) was 4.37 µM (inactive). For the same molecule, the GI50 (OVCAR-8) was 6.01 µM (inactive), the GI50 (RPMI-8226) was 2.26 µM (inactive) and the GI50 (MCF7) was 1.9 µM (inactive). For the same molecule, the GI50 (Hs-578T) was 697 nM (active), the GI50 (MDA-MB-435) was 12.3 µM (inactive) and the GI50 (MDA-N) was 22.2 µM (inactive). The GI50 (SF-295) was 1.24 µM (inactive), the GI50 (A549) was 853 nM (active) and the GI50 (UACC-257) was 20.7 µM (inactive). The GI50 (KM12) was 5.66 µM (inactive), the GI50 (U-251) was 1.69 µM (inactive) and the GI50 (786-0) was 4.61 µM (inactive). The GI50 (SF-268) was 6.71 µM (inactive) and the GI50 (HL-60) was 598 nM (active).
In the case of Cc1c2oc3c(C)ccc(C(=O)NC4C(=O)NC(C(C)C)C(=O)N5CC(=O)CC5C(=O)N(C)CC(=O)N(C)C(C(C)C)C(=O)OC4C)c3nc-2c(C(=O)NC2C(=O)NC(C(C)C)C(=O)N3CC(=O)CC3C(=O)N(C)CC(=O)N(C)C(C(C)C)C(=O)OC2C)c(N)c1=O (stereo unspecified) (I: TV[X48][Sar][NMeV] / II: TV[X48][Sar][NMeV]; ester I:1-I:C, II:1-II:C; linker I:N-II:N via Actinocin(9to1); configuration not given here), the GI50 (HCT-15) is reported as over 1 µM, the GI50 (SN12C) is reported as > 1 µM (active) and the GI50 (HT-29) is reported as > 1 µM (active). The GI50 (Malme-3M) was > 1 µM (active), the GI50 (SK-OV-3) was > 1 µM (active) and the GI50 (HOP-92) was > 1 µM (active). For the same molecule, the GI50 (ACHN) was > 1 µM (active), the GI50 (EKVX) was > 1 µM (active) and the GI50 (OVCAR-5) was > 1 µM (active). For the same molecule, the GI50 (NCI-H460) was > 1000 nM (active), the GI50 (PC-3) was > 1 µM (active) and the GI50 (T47D) was > 1 µM (active). For the same molecule, the GI50 (IGROV-1) was > 1 µM (active), the GI50 (RXF 393) was 476 nM (active) and the GI50 (SK-MEL-5) was > 1 µM (active). For the same molecule, the GI50 (HCC 2998) was > 1 µM (active), the GI50 (COLO 205) was > 1 µM (active) and the GI50 (SNB-19) was > 1 µM (active). The GI50 (CCRF-CEM) was > 1000 nM (active), the GI50 (SK-MEL-28) was > 1 µM (active) and the GI50 (NCI-H226) was > 1 µM (active). The GI50 (MDA-MB-231) was > 1 µM (active), the GI50 (M14) was > 1 µM (active) and the GI50 (SF-539) was > 1 µM (active). For the same molecule, the GI50 (SW-620) was > 1 µM (active), the GI50 (UO-31) was > 1 µM (active) and the GI50 (MOLT-4) was > 1000 nM (active). For the same molecule, the GI50 (TK-10) was > 1 µM (active), the GI50 (HCT-116) was > 1 µM (active) and the GI50 (HOP-62) was > 1 µM (active). The GI50 (OVCAR-4) was > 1 µM (active), the GI50 (CAKI-1) was > 1 µM (active) and the GI50 (OVCAR-3) was > 1 µM (active). For the same molecule, the GI50 (NCI/ADR-RES) was > 1 µM (active), the GI50 (K562) was > 1 µM (active) and the GI50 (OVCAR-8) was > 1 µM (active). The GI50 (DU-145) was > 1 µM (active), the GI50 (SR) was 948 nM (active) and the GI50 (RPMI-8226) was > 1 µM (active). The GI50 (MCF7) was 0.0277 µM (active), the GI50 (MDA-MB-435) was > 1 µM (active) and the GI50 (MDA-N) was > 1 µM (active). For the same molecule, the GI50 (SF-295) was > 1 µM (active), the GI50 (A498) was > 1 µM (active) and the GI50 (A549) was 253 nM (active). For the same molecule, the GI50 (UACC-257) was > 1 µM (active), the GI50 (U-251) was > 1 µM (active) and the GI50 (SK-MEL-2) was > 1 µM (active). The GI50 (786-0) was > 1 µM (active), the GI50 (HL-60) was > 1000 nM (active) and the GI50 (NCI-H23) was > 1 µM (active). For the same molecule, the GI50 (LOX IMVI) was > 1 µM (active).

— ChEMBL document CHEMBL1201862, “PubChem BioAssay data set” (2004)
